From ChEMBL document CHEMBL4251622, “Design, synthesis, and biological evaluation of polo-like kinase 1/eukaryotic elongation factor 2 kinase (PLK1/EEF2K) dual inhibitors for regulating breast cancer cells apoptosis and autophagy” (Eur J Med Chem, 2018)
pIC50: −log10 of the molar value. Active and inactive are the calls of the source. No cut-off for these calls is given here.

Tests used:
[1] = molecular target: Tyrosine-protein kinase JAK3 (Homo sapiens) (UniProt P52333); assay: Inhibition of wild-type human partial length JAK3 JH1 catalytic domain (I781 to S1124 residues) expressed in mammalian expression system assessed as residual activity at 1 uM by Kinomescan method relative to control
[2] = molecular target: Serine/threonine-protein kinase RIO2 (Homo sapiens) (UniProt Q9BVS4); assay: Inhibition of wild-type human partial length RIOK2 (M1 to D313 residues) expressed in mammalian expression system assessed as residual activity at 1 uM by Kinomescan method relative to control
[3] = molecular target: RAC-alpha serine/threonine-protein kinase (Homo sapiens) (UniProt P31749); assay: Inhibition of wild-type human partial length AKT1 expressed in bacterial expression system assessed as residual activity at 1 uM by Kinomescan method relative to control
[4] = molecular target: Angiopoietin-1 receptor (Homo sapiens) (UniProt Q02763); assay: Inhibition of wild-type human partial length TIE2 (N804 to T1112 residues) expressed in bacterial expression system assessed as residual activity at 1 uM by Kinomescan method relative to control
Chain of Angiopoietin-1 receptor (Homo sapiens) (Q02763 whole entry, the tested form may be a part): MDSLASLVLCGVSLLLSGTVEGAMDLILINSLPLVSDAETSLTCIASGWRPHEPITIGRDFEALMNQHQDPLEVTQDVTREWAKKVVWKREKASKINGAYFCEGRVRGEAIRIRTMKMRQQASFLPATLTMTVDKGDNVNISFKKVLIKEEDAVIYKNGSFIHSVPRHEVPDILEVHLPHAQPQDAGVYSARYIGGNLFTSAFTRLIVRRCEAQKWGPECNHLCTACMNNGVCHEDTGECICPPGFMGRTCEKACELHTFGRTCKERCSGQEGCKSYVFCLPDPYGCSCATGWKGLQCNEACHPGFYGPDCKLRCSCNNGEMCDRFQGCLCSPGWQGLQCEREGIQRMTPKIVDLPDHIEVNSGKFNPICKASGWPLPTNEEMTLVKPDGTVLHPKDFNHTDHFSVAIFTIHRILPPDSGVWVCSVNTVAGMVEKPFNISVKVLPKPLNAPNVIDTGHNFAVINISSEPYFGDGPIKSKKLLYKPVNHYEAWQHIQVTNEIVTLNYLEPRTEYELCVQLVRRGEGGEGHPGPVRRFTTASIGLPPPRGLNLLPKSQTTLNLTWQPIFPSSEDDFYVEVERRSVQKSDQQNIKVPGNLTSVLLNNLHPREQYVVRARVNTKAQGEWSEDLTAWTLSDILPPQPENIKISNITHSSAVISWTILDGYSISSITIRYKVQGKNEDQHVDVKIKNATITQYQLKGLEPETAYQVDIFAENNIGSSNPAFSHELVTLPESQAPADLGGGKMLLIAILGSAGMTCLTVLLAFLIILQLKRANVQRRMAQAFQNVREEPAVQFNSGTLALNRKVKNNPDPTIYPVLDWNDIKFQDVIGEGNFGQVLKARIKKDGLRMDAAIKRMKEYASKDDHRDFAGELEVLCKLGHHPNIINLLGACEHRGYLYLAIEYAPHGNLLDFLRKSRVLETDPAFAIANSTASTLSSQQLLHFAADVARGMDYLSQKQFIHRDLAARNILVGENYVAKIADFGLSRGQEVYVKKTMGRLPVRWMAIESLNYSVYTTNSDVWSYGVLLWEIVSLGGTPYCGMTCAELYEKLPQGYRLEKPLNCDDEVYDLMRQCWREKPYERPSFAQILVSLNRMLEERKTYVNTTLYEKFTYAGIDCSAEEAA

[5] = molecular target: Serine/threonine-protein kinase pim-2 (Homo sapiens) (UniProt Q9P1W9); assay: Inhibition of wild-type human partial length PIM2 (M1 to E291 residues) expressed in bacterial expression system assessed as residual activity at 1 uM by Kinomescan method relative to control
[6] = molecular target: Cyclin-dependent kinase 7 (Homo sapiens) (UniProt P50613); assay: Inhibition of wild-type human full length CDK7 (M1 to L344 residues) expressed in mammalian expression system assessed as residual activity at 1 uM by Kinomescan method relative to control
Chain of Cyclin-dependent kinase 7 (Homo sapiens) (P50613 whole entry, the tested form may be a part): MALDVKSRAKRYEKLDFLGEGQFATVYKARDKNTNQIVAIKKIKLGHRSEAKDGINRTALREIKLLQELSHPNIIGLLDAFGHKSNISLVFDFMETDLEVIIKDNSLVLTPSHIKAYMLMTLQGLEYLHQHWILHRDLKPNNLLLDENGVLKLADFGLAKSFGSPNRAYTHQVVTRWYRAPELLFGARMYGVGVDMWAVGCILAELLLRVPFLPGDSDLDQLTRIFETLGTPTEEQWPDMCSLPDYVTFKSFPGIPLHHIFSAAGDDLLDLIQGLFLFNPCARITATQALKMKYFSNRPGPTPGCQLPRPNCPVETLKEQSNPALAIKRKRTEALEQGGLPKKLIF

[7] = test system: Epidermal growth factor receptor (Homo sapiens), P00533 [L858R]; assay: Inhibition of human partial length EGFR L858R mutant (R669 to V1011 residues) expressed in bacterial expression system assessed as residual activity at 1 uM by Kinomescan method relative to control
[8] = molecular target: MAP/microtubule affinity-regulating kinase 3 (Homo sapiens) (UniProt P27448); assay: Inhibition of wild-type human full length MARK3 (M1 to L729 residues) expressed in bacterial expression system assessed as residual activity at 1 uM by Kinomescan method relative to control
Chain of MAP/microtubule affinity-regulating kinase 3 (Homo sapiens) (P27448 whole entry, looked up, the tested form may be a part): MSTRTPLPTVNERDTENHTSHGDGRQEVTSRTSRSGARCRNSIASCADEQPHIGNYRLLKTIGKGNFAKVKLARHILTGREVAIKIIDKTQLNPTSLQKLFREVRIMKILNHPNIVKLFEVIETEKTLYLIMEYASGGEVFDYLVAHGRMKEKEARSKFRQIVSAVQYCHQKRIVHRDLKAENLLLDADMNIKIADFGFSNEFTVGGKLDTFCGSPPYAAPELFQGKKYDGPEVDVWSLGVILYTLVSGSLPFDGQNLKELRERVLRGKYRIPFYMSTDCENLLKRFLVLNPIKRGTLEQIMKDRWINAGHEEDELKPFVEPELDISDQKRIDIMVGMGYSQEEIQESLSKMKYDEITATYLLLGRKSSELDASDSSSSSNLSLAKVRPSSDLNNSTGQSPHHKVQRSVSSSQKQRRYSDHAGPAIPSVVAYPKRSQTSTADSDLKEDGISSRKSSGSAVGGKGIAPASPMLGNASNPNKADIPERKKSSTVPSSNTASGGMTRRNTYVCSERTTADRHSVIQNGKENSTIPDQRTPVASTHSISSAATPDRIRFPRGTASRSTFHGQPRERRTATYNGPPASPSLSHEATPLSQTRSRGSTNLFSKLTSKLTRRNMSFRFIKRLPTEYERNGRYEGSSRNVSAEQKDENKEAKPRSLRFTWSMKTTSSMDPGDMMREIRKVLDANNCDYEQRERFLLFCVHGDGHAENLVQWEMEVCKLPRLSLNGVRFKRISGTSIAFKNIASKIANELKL

[9] = molecular target: Inhibitor of nuclear factor kappa-B kinase subunit beta (Homo sapiens) (UniProt O14920); assay: Inhibition of wild-type human full length IKK-beta (M1 to S756 residues) expressed in mammalian expression system assessed as residual activity at 1 uM by Kinomescan method relative to control
[10] = molecular target: Dual specificity mitogen-activated protein kinase kinase 2 (Homo sapiens) (UniProt P36507); assay: Inhibition of wild-type human full length MEK2 (M1 to V400 residues) expressed in mammalian expression system assessed as residual activity at 1 uM by Kinomescan method relative to control
[11] = molecular target: Mitogen-activated protein kinase 3 (Homo sapiens) (UniProt P27361); assay: Inhibition of wild-type human full length ERK1 (M1 to P379 residues) expressed in bacterial expression system assessed as residual activity at 1 uM by Kinomescan method relative to control
Chain of Mitogen-activated protein kinase 3 (Homo sapiens) (P27361 whole entry, the tested form may be a part): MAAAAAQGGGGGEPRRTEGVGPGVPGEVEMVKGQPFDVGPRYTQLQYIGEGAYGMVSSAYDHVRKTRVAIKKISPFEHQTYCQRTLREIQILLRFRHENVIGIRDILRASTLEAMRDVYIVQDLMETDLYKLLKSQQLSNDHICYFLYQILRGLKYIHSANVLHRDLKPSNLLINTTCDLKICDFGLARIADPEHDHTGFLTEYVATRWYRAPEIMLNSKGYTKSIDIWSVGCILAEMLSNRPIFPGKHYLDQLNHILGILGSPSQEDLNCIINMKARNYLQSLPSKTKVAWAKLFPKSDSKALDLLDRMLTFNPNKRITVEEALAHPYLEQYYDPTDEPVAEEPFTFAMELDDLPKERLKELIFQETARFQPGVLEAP

[12] = molecular target: RAC-beta serine/threonine-protein kinase (Homo sapiens) (UniProt P31751); assay: Inhibition of wild-type human partial length AKT2 expressed in bacterial expression system assessed as residual activity at 1 uM by Kinomescan method relative to control
[13] = molecular target: Serine/threonine-protein kinase 32C (Homo sapiens) (UniProt Q86UX6); assay: Inhibition of wild-type human partial length YANK3 (M68 to G486 residues) expressed in bacterial expression system assessed as residual activity at 1 uM by Kinomescan method relative to control
Chain of Serine/threonine-protein kinase 32C (Homo sapiens) (Q86UX6 whole entry, the tested form may be a part): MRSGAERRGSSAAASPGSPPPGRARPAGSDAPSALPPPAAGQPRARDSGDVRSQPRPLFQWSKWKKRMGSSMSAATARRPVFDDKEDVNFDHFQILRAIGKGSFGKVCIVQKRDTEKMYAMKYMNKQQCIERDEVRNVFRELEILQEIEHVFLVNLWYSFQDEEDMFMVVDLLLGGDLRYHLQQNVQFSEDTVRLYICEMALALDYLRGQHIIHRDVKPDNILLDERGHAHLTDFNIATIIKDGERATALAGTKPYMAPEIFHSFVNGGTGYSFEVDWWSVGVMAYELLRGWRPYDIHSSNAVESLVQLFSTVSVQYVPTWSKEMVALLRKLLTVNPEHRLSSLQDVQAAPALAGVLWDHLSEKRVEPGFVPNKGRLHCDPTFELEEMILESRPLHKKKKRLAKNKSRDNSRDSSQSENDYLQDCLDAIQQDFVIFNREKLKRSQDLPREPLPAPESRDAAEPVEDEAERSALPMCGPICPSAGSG

[14] = molecular target: NUAK family SNF1-like kinase 2 (Homo sapiens) (UniProt Q9H093); assay: Inhibition of wild-type human partial length SNARK (P22 to A333 residues) expressed in mammalian expression system assessed as residual activity at 1 uM by Kinomescan method relative to control
[15] = molecular target: Mitogen-activated protein kinase 1 (Homo sapiens) (UniProt P28482); assay: Inhibition of wild-type human full length ERK2 (M1 to S360 residues) expressed in bacterial expression system assessed as residual activity at 1 uM by Kinomescan method relative to control
Chain of Mitogen-activated protein kinase 1 (Homo sapiens) (P28482 whole entry, the tested form may be a part): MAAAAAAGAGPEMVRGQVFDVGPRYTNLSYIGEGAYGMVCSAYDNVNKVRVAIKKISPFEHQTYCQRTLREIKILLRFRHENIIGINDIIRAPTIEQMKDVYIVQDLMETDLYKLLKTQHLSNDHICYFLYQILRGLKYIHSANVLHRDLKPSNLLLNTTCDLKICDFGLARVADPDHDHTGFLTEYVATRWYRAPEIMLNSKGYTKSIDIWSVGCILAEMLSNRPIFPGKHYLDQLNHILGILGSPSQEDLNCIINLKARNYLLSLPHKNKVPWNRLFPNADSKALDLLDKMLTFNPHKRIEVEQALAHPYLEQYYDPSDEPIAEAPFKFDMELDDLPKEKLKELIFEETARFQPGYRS

[16] = molecular target: Tyrosine-protein kinase JAK2 (Homo sapiens) (UniProt O60674); assay: Inhibition of wild-type human partial length JAK2 JH1 catalytic domain (A829 to G1132 residues) expressed in mammalian expression system assessed as residual activity at 1 uM by Kinomescan method relative to control
BT-483 [17] = assay: Induction of apoptosis in human BT-483 cells assessed as early apoptotic cells at 10 uM by Annexin V-FITC/propidium iodide staining based flow cytometry (reference value: 2.01%); format: functional
[18] = molecular target: Mitogen-activated protein kinase 10 (Homo sapiens) (UniProt P53779); assay: Inhibition of wild-type human partial length JNK3 (V28 to Q422 residues) expressed in mammalian expression system assessed as residual activity at 1 uM by Kinomescan method relative to control
[19] = molecular target: Platelet-derived growth factor receptor beta (Homo sapiens) (UniProt P09619); assay: Inhibition of wild-type human partial length PDGFRB (V582 to Y1009 residues) expressed in bacterial expression system assessed as residual activity at 1 uM by Kinomescan method relative to control
BT-483 [20] = assay: Induction of autophagy in human BT-483 cells assessed as activation of LC3 at 5 to 10 uM by Western blot analysis; format: functional, cell-based
[21] = molecular target: Eukaryotic elongation factor 2 kinase (Homo sapiens, UniProt O00418); assay: Inhibition of GST-tagged EEF2K (unknown origin) using biotinylated EEF2 peptide substrate by HTRF assay
BT-483 [22] = assay: Effect on FADD protein expression in human BT-483 cells at 5 to 10 uM by Western blot analysis; format: functional, cell-based
BT-483 [23] = assay: Induction of autophagy in human BT-483 cells assessed as degradation of SQSTM1 protein at 5 to 10 uM by Western blot analysis; format: functional, cell-based
[24] = molecular target: Phosphatidylinositol 4-phosphate 3-kinase C2 domain-containing subunit beta (Homo sapiens) (UniProt O00750); assay: Inhibition of wild-type human partial length PIK3C2B (M1 to L1634 residues) expressed in mammalian expression system assessed as residual activity at 1 uM by Kinomescan method relative to control
[25] = molecular target: High affinity nerve growth factor receptor (Homo sapiens) (UniProt P04629); assay: Inhibition of wild-type human partial length TRKA (G475 to G790 residues) expressed in mammalian expression system assessed as residual activity at 1 uM by Kinomescan method relative to control
Chain of High affinity nerve growth factor receptor (Homo sapiens) (P04629 33-796 limits assumed): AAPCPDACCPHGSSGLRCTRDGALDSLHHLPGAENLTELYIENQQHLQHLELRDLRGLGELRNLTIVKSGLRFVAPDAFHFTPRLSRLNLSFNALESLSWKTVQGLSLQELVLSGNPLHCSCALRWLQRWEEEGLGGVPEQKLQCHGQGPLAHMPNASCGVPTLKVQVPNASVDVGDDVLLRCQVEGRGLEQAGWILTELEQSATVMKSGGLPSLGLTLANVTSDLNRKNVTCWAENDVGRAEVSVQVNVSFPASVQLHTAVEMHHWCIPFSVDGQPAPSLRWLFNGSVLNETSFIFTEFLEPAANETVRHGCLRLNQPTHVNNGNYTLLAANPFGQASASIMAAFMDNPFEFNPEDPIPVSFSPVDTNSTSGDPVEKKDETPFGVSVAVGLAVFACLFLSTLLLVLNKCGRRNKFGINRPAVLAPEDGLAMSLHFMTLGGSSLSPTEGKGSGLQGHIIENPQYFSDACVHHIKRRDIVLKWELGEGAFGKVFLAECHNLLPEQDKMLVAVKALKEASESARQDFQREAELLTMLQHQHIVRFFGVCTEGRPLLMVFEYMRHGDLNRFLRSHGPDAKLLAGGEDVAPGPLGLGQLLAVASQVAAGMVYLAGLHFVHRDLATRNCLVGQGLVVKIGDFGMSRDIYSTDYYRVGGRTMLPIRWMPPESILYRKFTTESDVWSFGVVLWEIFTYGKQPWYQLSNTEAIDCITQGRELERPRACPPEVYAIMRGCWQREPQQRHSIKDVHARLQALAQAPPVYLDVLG

[26] = test system: Serine/threonine-protein kinase B-raf (Homo sapiens), P15056 [V600E]; assay: Inhibition of human partial length BRAF V600E mutant (S429 to E741 residues) expressed in mammalian expression system assessed as residual activity at 1 uM by Kinomescan method relative to control
Chain of Serine/threonine-protein kinase B-raf (Homo sapiens), P15056 [V600E] (P15056 whole entry V600E, the tested form may be a part): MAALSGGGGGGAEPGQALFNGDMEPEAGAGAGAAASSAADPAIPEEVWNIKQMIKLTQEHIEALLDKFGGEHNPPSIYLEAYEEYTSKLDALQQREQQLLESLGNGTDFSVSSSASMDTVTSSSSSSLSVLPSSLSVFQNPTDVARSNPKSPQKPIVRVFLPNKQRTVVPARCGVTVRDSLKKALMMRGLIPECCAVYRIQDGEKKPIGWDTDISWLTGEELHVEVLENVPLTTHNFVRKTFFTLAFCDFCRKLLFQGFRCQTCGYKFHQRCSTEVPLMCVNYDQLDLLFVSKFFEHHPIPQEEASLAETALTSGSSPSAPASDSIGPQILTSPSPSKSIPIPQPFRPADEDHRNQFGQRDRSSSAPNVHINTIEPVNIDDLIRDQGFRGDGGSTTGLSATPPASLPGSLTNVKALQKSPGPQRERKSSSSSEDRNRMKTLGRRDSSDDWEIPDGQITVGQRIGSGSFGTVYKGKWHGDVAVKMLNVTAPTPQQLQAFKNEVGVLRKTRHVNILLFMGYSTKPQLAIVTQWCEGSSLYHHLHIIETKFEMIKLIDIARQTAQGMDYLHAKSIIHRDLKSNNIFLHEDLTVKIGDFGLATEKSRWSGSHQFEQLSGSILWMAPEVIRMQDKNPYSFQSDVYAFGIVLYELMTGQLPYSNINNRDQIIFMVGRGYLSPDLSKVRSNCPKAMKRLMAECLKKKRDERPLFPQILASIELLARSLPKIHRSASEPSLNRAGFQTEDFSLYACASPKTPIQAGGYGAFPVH

[27] = molecular target: Fibroblast growth factor receptor 4 (Homo sapiens) (UniProt P22455); assay: Inhibition of wild-type human partial length FGFR4 (G402 to E713 residues) expressed in bacterial expression system assessed as residual activity at 1 uM by Kinomescan method relative to control
MDA-MB-231 = assay: Cytotoxicity against human MDA-MB-231 cells after 24 hrs by MTT assay; format: functional, cell-based

CCNc1cc(-c2ccc(NC(=O)Nc3cccc(Cl)c3)cc2C(F)(F)F)ccn1
Activity [1]: 98% | Activity [2]: 67% | Activity [3]: 90% | Activity [4]: 94% | Activity [5]: 88% | Activity [6]: 85% | Activity [7]: 99% | Activity [8]: 90% | Activity [9]: 92% | Activity [10]: 67% | Activity [11]: 67% | Activity [12]: 80% | Activity [13]: 73% | Activity [14]: 69% | Activity [15]: 80% | Activity [16]: 86% | Activity (BT-483 [17]): 8.72% | Activity [18]: 64% | Activity [19]: 83% | Activity (BT-483 [20]): Active | pIC50 [21]: 6.12 | Activity (BT-483 [22]): inactive | Activity (BT-483 [23]): Active | Activity [24]: 97% | Activity [25]: 84% | Activity [26]: 88% | Activity [27]: 95% | Activity (MDA-MB-231): Active
